Measured values as given in patent publication US7371766B2, “Curcumin analogs with anti-tumor and anti-angiogenic properties” (Emory University, priority 1999, dated 2008).

Assays:
CCRF-CEM = conditions: read-out: Median Growth Inhibitory Concentration (GI50), Leukemia, 48 hours
RPMI-8226 = conditions: read-out: Median Growth Inhibitory Concentration (GI50); RPMI-8226, Leukemia; 48 hours
SR = conditions: read-out: Median Growth Inhibitory Concentration (GI50), Leukemia, 48 hours
EKVX = conditions: read-out: Median Growth Inhibitory Concentration (GI50), Non-Small Cell Lung Cancer, 48 hours
HOP-62 = conditions: read-out: Median Growth Inhibitory Concentration (GI50); HOP-62, Non-Small Cell Lung Cancer; 48 hours
NCI-H226 = conditions: read-out: Median Growth Inhibitory Concentration (GI50); NCI-H226, Non-Small Cell Lung Cancer; 48 hours
NCI-H522 = conditions: read-out: Median Growth Inhibitory Concentration (GI50); NCI-H522, Non-Small Cell Lung Cancer; 48 hours
COLO 205 = conditions: read-out: Median Growth Inhibitory Concentration (GI50); COLO 205, Colon Cancer; 48 hours
HCT-116 = conditions: read-out: Median Growth Inhibitory Concentration (GI50); HCT-116, Colon Cancer; 48 hours
HCT-15 = conditions: read-out: Median Growth Inhibitory Concentration (GI50); HCT-15, Colon Cancer; 48 hours
SF-268 = conditions: read-out: Median Growth Inhibitory Concentration (GI50); SF-268, CNS Cancer; 48 hours
SNB-75 = conditions: read-out: Median Growth Inhibitory Concentration (GI50); SNB-75, CNS Cancer; 48 hours
U251 = conditions: read-out: Median Growth Inhibitory Concentration (GI50); U251, CNS Cancer; 48 hours
LOX IMVI = conditions: read-out: Median Growth Inhibitory Concentration (GI50), Melanoma, 48 hours
MALME-3M = conditions: read-out: Median Growth Inhibitory Concentration (GI50), Melanoma, 48 hours
M14 = conditions: read-out: Median Growth Inhibitory Concentration (GI50); M14, Melanoma; 48 hours
SK-MEL-2 = conditions: read-out: Median Growth Inhibitory Concentration (GI50); SK-MEL-2, Melanoma; 48 hours
UACC-62 = conditions: read-out: Median Growth Inhibitory Concentration (GI50); UACC-62, Melanoma; 48 hours
IGROV1 = conditions: read-out: Median Growth Inhibitory Concentration (GI50); IGROV1, Ovarian Cancer; 48 hours
OVCAR-5 = conditions: read-out: Median Growth Inhibitory Concentration (GI50); OVCAR-5, Ovarian Cancer; 48 hours
OVCAR-8 = conditions: read-out: Median Growth Inhibitory Concentration (GI50); OVCAR-8, Ovarian Cancer; 48 hours
A498 = conditions: read-out: Median Growth Inhibitory Concentration (GI50); A498, Renal Cancer; 48 hours
CAKI-1 = conditions: read-out: Median Growth Inhibitory Concentration (GI50); CAKI-1, Renal Cancer; 48 hours
RXF 393 = conditions: read-out: Median Growth Inhibitory Concentration (GI50); RXF 393, Renal Cancer; 48 hours
UO-31 = conditions: read-out: Median Growth Inhibitory Concentration (GI50); UO-31, Renal Cancer; 48 hours
MCF-7 = conditions: read-out: Median Growth Inhibitory Concentration (GI50); MCF-7, Breast Cancer; 48 hours
MDA-MB-231 = conditions: read-out: Median Growth Inhibitory Concentration (GI50); MDA-MB-231, Breast Cancer; 48 hours
HS 578T = conditions: read-out: Median Growth Inhibitory Concentration (GI50), Breast Cancer, 48 hours
MDA-MB-435 = conditions: read-out: Median Growth Inhibitory Concentration (GI50); MDA-MB-435, Breast Cancer; 48 hours
MDA-N = conditions: read-out: Median Growth Inhibitory Concentration (GI50), Breast Cancer, 48 hours
BT-549 = conditions: read-out: Median Growth Inhibitory Concentration (GI50); BT-549, Breast Cancer; 48 hours
T-47D = conditions: read-out: Median Growth Inhibitory Concentration (GI50), Breast Cancer, 48 hours

Molecule | GI50 (CCRF-CEM) | GI50 (RPMI-8226) | GI50 (SR) | GI50 (EKVX) | GI50 (HOP-62) | GI50 (NCI-H226) | GI50 (NCI-H522) | GI50 (COLO 205) | GI50 (HCT-116) | GI50 (HCT-15) | GI50 (SF-268) | GI50 (SNB-75) | GI50 (U251) | GI50 (LOX IMVI) | GI50 (MALME-3M) | GI50 (M14) | GI50 (SK-MEL-2) | GI50 (UACC-62) | GI50 (IGROV1) | GI50 (OVCAR-5) | also measured
3,5-Bis(2-hydroxybenzylidene)-sulfone [EF11] | 22 µM | 18.2 µM | 21.5 µM | 30.6 µM | 83.3 µM | > 100 µM | 33.3 µM | 39.6 µM | 36.8 µM | 42.6 µM | 24.6 µM | 20.3 µM | 35.7 µM | 40.3 µM | 40.7 µM | 33.9 µM | 24 µM | 21.3 µM | 35.9 µM | 89.2 µM | GI50 (OVCAR-8): 47.1 µM; GI50 (A498): 34.2 µM; GI50 (CAKI-1): 29.2 µM; GI50 (RXF 393): 39 µM; GI50 (UO-31): 28.4 µM; GI50 (MCF-7): 28.7 µM; GI50 (MDA-MB-231): 25.6 µM; GI50 (HS 578T): 52.1 µM; GI50 (MDA-MB-435): 31.4 µM; GI50 (MDA-N): 36.9 µM; GI50 (BT-549): 32.9 µM; GI50 (T-47D): 24.7 µM
N.N.[Cl][Pt][Cl] [Cisplatin, reference compound] | 0.2 µM | 0.5 µM | 0.1 µM | 1.6 µM | 0.3 µM | 0.8 µM | 0.8 µM | 4 µM | 1.3 µM | 1.6 µM | 0.2 µM | 0.6 µM | 0.4 µM | 0.3 µM | 0.2 µM | 0.3 µM | 1.3 µM | 0.3 µM | 0.6 µM | 1.3 µM | GI50 (OVCAR-8): 1 µM; GI50 (A498): 2 µM; GI50 (CAKI-1): 0.3 µM; GI50 (RXF 393): 0.8 µM; GI50 (UO-31): 0.8 µM; GI50 (MCF-7): 0.4 µM; GI50 (MDA-MB-231): 3.2 µM; GI50 (HS 578T): 1.3 µM; GI50 (MDA-MB-435): 1.6 µM; GI50 (MDA-N): 0.8 µM; GI50 (BT-549): 1.3 µM; GI50 (T-47D): 2 µM
C(=C\c1ccccc1)/S/C=C/c1ccccc1 [EF15] | 41.5 µM | 49.8 µM | 52 µM | 64 µM | > 100 µM | > 100 µM | 69.9 µM | > 100 µM | > 100 µM | 49.1 µM | > 100 µM | 98.8 µM | 95.1 µM | > 100 µM | > 100 µM | > 100 µM | 31.7 µM | 66.7 µM | > 100 µM | > 100 µM | GI50 (OVCAR-8): > 100 µM; GI50 (A498): 23.3 µM; GI50 (CAKI-1): > 100 µM; GI50 (RXF 393): 23.5 µM; GI50 (UO-31): 96.8 µM; GI50 (MCF-7): 44.6 µM; GI50 (MDA-MB-231): > 100 µM; GI50 (HS 578T): > 100 µM; GI50 (MDA-MB-435): 61.2 µM; GI50 (MDA-N): 67.8 µM; GI50 (BT-549): > 100 µM; GI50 (T-47D): 18.5 µM
